Laboratory results reported in patent US7332501B2, “Indol-3-yl-carbonyl-spiro-piperidine derivatives as V1a receptor antagonists” (Hoffmann-La Roche Inc., priority 2005, dated 2008).

These molecules were tested against T1, human V1a receptor (Homo sapiens, UniProt P37288) (assay: human V1a receptor binding (3H-Vasopressin SPA, HEK293 membranes)). Settings: displacement of 4 nM 3H-Vasopressin, membranes of HEK293 cells transiently transfected with human V1a receptor; Ki from IC50 by Cheng-Prussoff.
T1 construct: expressed in transfected cells; host or cells: HEK293 cells, transiently transfected; cell membranes
T1 sequence (P37288 whole entry): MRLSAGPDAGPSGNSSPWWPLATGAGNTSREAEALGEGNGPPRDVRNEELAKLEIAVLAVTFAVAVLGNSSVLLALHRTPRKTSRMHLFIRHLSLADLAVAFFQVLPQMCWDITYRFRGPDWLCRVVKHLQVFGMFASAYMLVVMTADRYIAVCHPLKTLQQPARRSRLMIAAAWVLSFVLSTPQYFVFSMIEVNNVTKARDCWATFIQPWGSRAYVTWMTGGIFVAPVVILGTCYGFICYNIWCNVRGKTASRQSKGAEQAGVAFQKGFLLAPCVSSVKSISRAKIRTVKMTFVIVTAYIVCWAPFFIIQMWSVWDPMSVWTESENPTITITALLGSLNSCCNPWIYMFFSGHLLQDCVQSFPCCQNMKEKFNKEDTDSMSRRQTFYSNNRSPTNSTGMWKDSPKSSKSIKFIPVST
How it was run: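 Transiently transfected HEK293 membranes on yttrium silicate SPA beads in Tris binding buffer (120 mM NaCl, 5 mM KCl, 2 mM CaCl2, 10 mM MgCl2). 3H-vasopressin added as 4 nM working solution; excess cold vasopressin set non-specific binding. 1 h at room temperature, then counting; Ki from fitted IC50 via Cheng-Prusoff.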
`Cc1c(C(=O)N2C[C@@H](C)[C@]3(OC(=O)c4ccccc43)[C@@H](C)C2)c2ccccc2n1Cc1ccccc1` [Example 281, (1R,3′R,5′S)-1′-[(1-Benzyl-2-methyl-1H-indol-3-yl)carbonyl]-3′,5′-dimethyl-3H-spiro[2-benzofuran-1,4′-piperidin]-3-one] gave a Ki of 19.1 nM.
Molecule `CNC(=O)Cn1cc(C(=O)N2CCC3(CC2)NC(=O)c2ccccc23)c2ccc(Cl)cc21` [Example 283, 2-{6-Chloro-3-[(3-oxo-2,3-dihydro-1′H-spiro[isoindole-1,4′-piperidin]-1′-yl)carbonyl]-1H-indol-1-yl}-N-methylacetamide] has a Ki of 63.1 nM.
Work on `O=C(c1c[nH]c2cc(Cl)ccc12)N1CCC2(CC1)NCc1ccccc12` [Example 284, 1′-[(6-Chloro-1H-indol-3-yl)carbonyl]-2,3-dihydrospiro[isoindole-1,4′-piperidine]] yielded a Ki of 138 nM.
